Test results: PubChem BioAssay (NCI)
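All cell lines were grown in 96-well plates and treated with compound for 48 hours. GI50 = concentration required for 50% inhibition of growth. At the TGI there is no net growth.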

Columns and labels:
Assay in all cases: NCI anticancer screen, dose series, 48 h
[1] = system: MDA-MB-435
[2] = system: SR leukemia
[3] = system: MDA-MB-231 breast
[4] = system: SNB-19 CNS
[5] = system: SF-268 CNS
[6] = system: OVCAR-4 ovarian
[7] = system: ACHN renal
[8] = system: UACC-62 melanoma
[9] = system: TK-10 renal
[10] = system: HS 578T breast

SMILES | TGI [1] [µM] | TGI [2] [µM] | TGI [3] [µM] | TGI [4] [µM] | TGI [5] [µM] | TGI [6] [µM] | TGI [7] [µM] | TGI [8] [µM] | TGI [9] [µM] | TGI [10] [µM] | GI50 [1] [µM] | GI50 [2] [µM] | GI50 [3] [µM] | GI50 [4] [µM] | GI50 [5] [µM] | GI50 [6] [µM] | GI50 [7] [µM] | GI50 [8] [µM] | GI50 [9] [µM] | GI50 [10] [µM]
COc1ccc2c(-c3cc4ccccc4o3)cc(=O)oc2c1 | > 100 | > 100 | > 100 | > 100 | > 94 | 71.8 | > 100 | > 100 | 50.8 | 43.6 | – | – | – | – | – | – | – | – | – | –
CCN(CCO)CCNc1ccc(C)c2sc3cc(Cl)ccc3c(=O)c12 | 2.26 | 2.78 | 2.24 | 3.17 | 3.04 | 5.15 | 3.19 | 3.31 | 3.31 | 4.46 | 0.891 | 0.751 | 0.783 | 1.58 | 1.44 | 2.18 | 1.61 | 1.73 | 1.8 | 1.76
CCCCCC(C(O)C#N)C(O)(C(F)(F)F)C(F)(F)F (stereo not given) | > 10 | > 10 | > 10 | > 10 | > 10 | > 10 | > 10 | > 10 | > 10 | > 10 | – | – | – | – | – | – | – | – | – | –
COc1ccc(NC2=C(Br)C(=O)C(C)=C(C)C2=O)cc1 | 3.49 | > 100 | 3.96 | 22.8 | 28.2 | 2.97 | 8.76 | 20.7 | 40.9 | 57.5 | 1.91 | 3.21 | 1.88 | 10.5 | 11.9 | 1.6 | 2.87 | 7.74 | 25.2 | 11.8
Oc1ccc(Cc2ccccc2)c2cccnc12 | > 100 | > 100 | 27.4 | > 100 | 86.8 | > 100 | 9.53 | 6.04 | > 100 | > 100 | 1.83 | 0.673 | 4.36 | 3.08 | 2.18 | 6.35 | 1.21 | 2.32 | 2.81 | > 100
CCn1c(-c2nonc2N)nc2ccc(F)cc21 | > 25 | > 25 | > 25 | > 25 | > 25 | > 25 | > 25 | > 25 | > 25 | > 25 | > 25 | > 25 | > 25 | > 25 | > 25 | > 25 | > 25 | > 25 | > 25 | > 25
Oc1c(Br)cc(CN(Cc2cc(Br)c(O)c(Br)c2)C2CCCCC2)cc1Br | > 100 | > 100 | > 100 | > 100 | > 100 | > 100 | > 100 | > 100 | > 100 | > 100 | – | – | – | – | – | – | – | – | – | –
COc1ccc2c(c1)[C@@]13CCN4CC5=CCO[C@H]6CC(=O)N2[C@H]1[C@H]6[C@H]5C[C@H]43 | > 100 | > 100 | > 100 | > 100 | > 100 | > 100 | > 100 | > 100 | > 100 | > 100 | – | – | – | – | – | – | – | – | – | –
CN1CCN(Cc2ccc(NC(=O)c3ccc(C(C)(C)C)c(C#Cc4cnc5cccnn45)c3)cc2C(F)(F)F)CC1 | 2.95 | 0.512 | 4.14 | 4.14 | 3.82 | 19.7 | 3.69 | 4.37 | 7.02 | 39.2 | 1.5 | 0.199 | 1.97 | 2.1 | 1.87 | 4.64 | 1.99 | 2.08 | 2.62 | 10.4
CNC(=O)c1cn(C[C@H](F)CCc2ccc(NC(=O)Cc3cc(OC4CC(F)(F)C4)cc(C)n3)nn2)nn1 | > 100 | > 100 | > 100 | > 100 | > 100 | > 100 | > 100 | > 100 | > 100 | > 100 | > 100 | > 81.8 | > 100 | > 100 | > 100 | > 100 | > 100 | > 100 | > 100 | 5.37
Cc1c(-c2nc(N)nc(C3CC3)c2C)nc(N)nc1C1CC1 | > 100 | > 100 | > 100 | > 100 | > 100 | > 100 | > 100 | > 100 | > 100 | > 100 | – | – | – | – | – | – | – | – | – | –
CNc1nc(NC2CCCC2)nc(Sc2ccc(OC)cc2)n1 | > 10 | > 10 | > 10 | > 10 | > 10 | > 10 | > 10 | > 10 | > 10 | > 10 | > 10 | > 10 | > 10 | > 10 | > 10 | > 10 | > 10 | > 10 | > 10 | > 10
FC(F)(F)c1ccc2c(Nc3cccc(C4CC(c5ccccc5)=NN4c4ccc(Cl)cc4)c3)ccnc2c1 (stereo not given) | 11.6 | 9.41 | 15.9 | 27 | 21.5 | 28.9 | 11.1 | 10.6 | 21.4 | 43.2 | 2.97 | 1.26 | 3.88 | 4.38 | 3.35 | 4.99 | 2.9 | 2.64 | 4.76 | 4.43
Clc1ccc(OCc2nnc3n2N=C(c2ccc(Cl)cc2Cl)CS3)c(Cl)c1 | > 100 | 46.5 | 38.3 | > 100 | 66.5 | > 100 | 49.9 | 32.2 | > 100 | > 100 | 24.3 | 17.3 | 14.9 | 34.3 | 22.9 | 28.1 | 20.5 | 14.1 | 25.1 | 29.6
CN(C)CCNC(=O)Nc1c(C#N)[n+]([O-])c2cc(Cl)c(Cl)cc2[n+]1[O-] | > 100 | > 100 | 56.9 | > 100 | > 100 | > 100 | > 100 | 66.5 | > 100 | > 100 | 31 | 13.4 | 19.9 | 27.8 | 9.47 | 17.8 | 32.9 | 10.2 | 53.7 | 33.4
COc1ccccc1C(=O)c1ccc2ccccc2c1 | 8.88 | 16.1 | > 100 | 78.4 | > 100 | > 100 | > 100 | > 100 | 63.6 | 39.1 | – | – | – | – | – | – | – | – | – | –
NCCN1CCN(c2nccc(-c3ccc4ccccc4c3)n2)CC1 | 3.25 | 6.11 | 3.31 | 5.98 | 3.49 | 7.5 | 3.29 | 3.65 | 3.27 | 4.37 | 1.8 | 1.87 | 1.66 | 2.26 | 1.75 | 2.41 | 1.71 | 1.87 | 1.78 | 1.73
